From patent US20050171102A1, “Semicarbazide derivatives for combating thromboembolic diseases” (priority 2002, published 2005)
Counter-ions that a name gives are not always drawn.

Assays:
FXa = FXa (Homo sapiens, UniProt P00742); experiment: Factor Xa inhibition (FXa-IC50), Table 3 'Affinity to Receptors'
TF/FVIIa = TF/FVIIa (Homo sapiens, UniProt P08709); experiment: TF/FVIIa inhibition (TF/FVIIa-IC50), Table 3 'Affinity to Receptors'
TF/FVIIa, sequence (P08709 213-466 limits assumed): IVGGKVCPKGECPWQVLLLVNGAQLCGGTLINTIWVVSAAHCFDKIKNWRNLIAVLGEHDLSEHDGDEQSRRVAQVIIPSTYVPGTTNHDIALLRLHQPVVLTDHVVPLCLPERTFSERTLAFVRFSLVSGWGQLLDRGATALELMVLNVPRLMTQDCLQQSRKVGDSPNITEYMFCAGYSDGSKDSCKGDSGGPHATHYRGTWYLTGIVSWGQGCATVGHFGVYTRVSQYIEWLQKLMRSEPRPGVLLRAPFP
TF/FVIIa, sequence (P08709 61-212 limits assumed): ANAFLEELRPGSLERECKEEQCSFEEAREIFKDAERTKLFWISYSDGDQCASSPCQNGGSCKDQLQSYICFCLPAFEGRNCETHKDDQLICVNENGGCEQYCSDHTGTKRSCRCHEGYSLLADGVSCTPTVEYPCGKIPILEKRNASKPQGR
TF/FVIIa, sequence (P13726 33-295 partner): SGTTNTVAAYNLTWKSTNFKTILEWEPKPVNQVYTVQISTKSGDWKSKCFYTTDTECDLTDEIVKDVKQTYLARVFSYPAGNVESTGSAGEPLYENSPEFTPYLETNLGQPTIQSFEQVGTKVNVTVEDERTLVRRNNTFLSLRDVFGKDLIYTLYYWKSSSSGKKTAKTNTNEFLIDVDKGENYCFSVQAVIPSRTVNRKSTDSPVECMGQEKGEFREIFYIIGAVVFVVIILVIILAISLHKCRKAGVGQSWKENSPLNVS

FXa, sequence (P00742 235-488 limits assumed): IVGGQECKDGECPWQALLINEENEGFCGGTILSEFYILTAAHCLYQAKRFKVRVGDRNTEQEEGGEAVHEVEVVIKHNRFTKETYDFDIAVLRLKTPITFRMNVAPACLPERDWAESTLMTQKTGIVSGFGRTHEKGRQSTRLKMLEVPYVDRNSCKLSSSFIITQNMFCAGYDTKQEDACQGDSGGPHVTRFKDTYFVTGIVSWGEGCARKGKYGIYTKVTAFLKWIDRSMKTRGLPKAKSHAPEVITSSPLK
FXa, sequence (P00742 41-179 limits assumed): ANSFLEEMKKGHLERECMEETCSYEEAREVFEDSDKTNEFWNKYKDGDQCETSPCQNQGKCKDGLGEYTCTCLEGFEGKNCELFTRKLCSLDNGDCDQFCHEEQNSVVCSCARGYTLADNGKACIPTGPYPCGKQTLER

Compound | IC50 (FXa) [nM] | IC50 (TF/FVIIa) [nM] | melting point [°C]
N#Cc1cccc(NN(C(=O)Nc2ccc(N3CCCCC3=O)cc2)c2ccccc2)c1 [5″, 1-(3-cyanophenyl)-4-[4-(2-oxopiperidin-1-yl)phenyl]-2-phenylsemicarbazide] | – | – | 239 to 241
Cc1cc(NC(=O)NN(c2ccccc2)c2cccc(CN)c2)ccc1N1CCCCC1=O.Cl | – | – | 172 to 173
N=C(N)c1cccc(NN(C(=O)Nc2ccc(N3CCOCC3=O)c(Cl)c2)c2ccccc2)c1 [Compound 4.AA, 1-(3-amidinophenyl)-4-[3-chloro-4-(3-oxomorpholin-4-yl)phenyl]-2-phenylsemicarbazide, hydrochloride] | 20 | 27 | –
Cc1cc(NC(=O)NN(c2ccccc2)c2cccc(C#N)c2)ccc1N1CCOCC1 [5′, 1-(3-cyanophenyl)-4-[3-methyl-4-(morpholin-4-yl)phenyl]-1-phenylsemicarbazide] | – | – | 115 to 116

Other lines, results leading:

IC50 (FXa) [nM] | IC50 (TF/FVIIa) [nM] | melting point [°C] | Compound
16 | 9.8 | > 300 | Cc1cc(NC(=O)NN(c2ccccc2)c2cccc(C(=N)N)c2)ccc1N1CCCCC1=O.Cl [Compound 10, 1-(3-amidinophenyl)-4-[3-methyl-4-(2-oxopiperidin-1-yl)phenyl]-1-phenylsemicarbazide, hydrochloride]
8.6 | 5.1 | > 300 | Cc1cc(NC(=O)N(Nc2cccc(C(=N)N)c2)c2ccccc2)ccc1N1CCCCC1=O.Cl [Compound 11, 1-(3-amidinophenyl)-4-[3-methyl-4-(2-oxopiperidin-1-yl)phenyl]-2-phenylsemicarbazide, hydrochloride]
– | – | 161 to 162 | Cc1cc(NC(=O)NN(c2ccccc2)c2cccc(C#N)c2)ccc1N1CCCCC1=O [Compound 6, 1-(3-cyanophenyl)-4-[3-methyl-4-(2-oxopiperidin-1-yl)phenyl]-1-phenylsemicarbazide]
130 | 170 | 95 to 97 | Cc1cc(NC(=O)N(Nc2cccc(CN)c2)c2ccccc2)ccc1N1CCCCC1=O.Cl [Compound 13, 1-(3-aminomethylphenyl)-4-[3-methyl-4-(2-oxopiperidin-1-yl)phenyl]-2-phenylsemicarbazide, hydrochloride]
